Reference: paper PMC12136037, “Type II kinase inhibitors that target Parkinson’s disease–associated LRRK2” (Science Advances, 2025)
Values joined by “and” are separate entries in the source; they are usually repeats but may differ in a detail not shown here. Equal entries are not always repeated. Where two headings read alike, the source gives them in different places.

What was measured:
Assay in all cases: nanoBRET off-target validation
Format in all cases: cell-based
STK17B = biological target: T1, STK17B (Homo sapiens, UniProt O94768)
T1 construct: host or cells: HEK293T (ATCC CRL-3216)
T1 sequence (O94768 1-372): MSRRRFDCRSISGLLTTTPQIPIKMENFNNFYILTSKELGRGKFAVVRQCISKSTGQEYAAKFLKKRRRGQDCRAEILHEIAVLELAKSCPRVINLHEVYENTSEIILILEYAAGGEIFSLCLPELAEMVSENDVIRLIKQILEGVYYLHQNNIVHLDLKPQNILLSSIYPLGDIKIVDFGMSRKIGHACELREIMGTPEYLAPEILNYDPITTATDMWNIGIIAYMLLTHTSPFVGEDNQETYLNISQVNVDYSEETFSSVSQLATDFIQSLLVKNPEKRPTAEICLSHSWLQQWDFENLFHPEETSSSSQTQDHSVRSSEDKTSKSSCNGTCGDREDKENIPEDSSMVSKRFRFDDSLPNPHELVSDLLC

CDKL1 = biological target: T2, CDKL1 (Homo sapiens, UniProt Q00532)
T2 construct: host or cells: HEK293T (ATCC CRL-3216)
T2 sequence (Q00532 whole entry): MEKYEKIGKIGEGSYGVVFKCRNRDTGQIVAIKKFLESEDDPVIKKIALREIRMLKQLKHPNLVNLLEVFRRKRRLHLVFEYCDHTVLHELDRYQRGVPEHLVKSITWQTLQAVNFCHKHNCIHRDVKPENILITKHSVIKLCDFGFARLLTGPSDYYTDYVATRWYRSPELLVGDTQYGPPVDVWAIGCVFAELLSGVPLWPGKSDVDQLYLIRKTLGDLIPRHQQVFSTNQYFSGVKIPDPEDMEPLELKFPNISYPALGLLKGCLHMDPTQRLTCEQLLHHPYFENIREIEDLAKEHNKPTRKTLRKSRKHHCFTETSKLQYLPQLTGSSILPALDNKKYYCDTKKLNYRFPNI

MAPK14 = biological target: T3, MAPK14 (Homo sapiens, UniProt Q16539)
T3 construct: host or cells: HEK293T (ATCC CRL-3216)
T3 sequence (Q16539 whole entry): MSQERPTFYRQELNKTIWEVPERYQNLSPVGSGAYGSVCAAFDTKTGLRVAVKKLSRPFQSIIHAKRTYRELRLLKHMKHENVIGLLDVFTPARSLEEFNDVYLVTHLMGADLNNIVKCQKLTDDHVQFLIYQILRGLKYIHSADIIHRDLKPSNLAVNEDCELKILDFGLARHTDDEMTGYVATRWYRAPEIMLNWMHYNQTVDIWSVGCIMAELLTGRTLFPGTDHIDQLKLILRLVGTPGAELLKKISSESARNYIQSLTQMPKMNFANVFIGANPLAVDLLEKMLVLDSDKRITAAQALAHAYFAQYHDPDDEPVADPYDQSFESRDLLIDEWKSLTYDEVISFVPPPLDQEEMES

Question: Which results are given for CCSc1nc(NC)c2c(-c3cccc(NC(=O)Nc4cc(C(C)(C)C)nn4-c4ccc(C)cc4)c3)c[nH]c2n1 [Compound 32]?
Answer: EC50 (STK17B): ≥ 20 µM; nanoBRET response normalized to 0% (no tracer) and 100% (no inhibitor) control (STK17B; STK17B, inhibitor 8 nM, two replicates, listed as RN341, 0.008 µM): 97.0874%; NanoBRET tracer signal (% of no-inhibitor control) at 0.008 µM (STK17B; STK17B, inhibitor 8 nM, two replicates, read-out: nanoBRET response normalized to 0% (no tracer) and 100% (no inhibitor) control): 97.6%; nanoBRET response normalized to 0% (no tracer) and 100% (no inhibitor) control (STK17B; STK17B, inhibitor 16 nM, two replicates, listed as RN341, 0.016 µM): 82.8095%; NanoBRET tracer signal (% of no-inhibitor control) at 0.016 µM (STK17B; STK17B, inhibitor 16 nM, two replicates, read-out: nanoBRET response normalized to 0% (no tracer) and 100% (no inhibitor) control): 94.7%; nanoBRET response normalized to 0% (no tracer) and 100% (no inhibitor) control (STK17B; STK17B, inhibitor 50 nM, two replicates, listed as RN341, 0.05 µM): 109.03%; NanoBRET tracer signal (% of no-inhibitor control) at 0.05 µM (STK17B; STK17B, inhibitor 50 nM, two replicates, read-out: nanoBRET response normalized to 0% (no tracer) and 100% (no inhibitor) control): 112%; nanoBRET response normalized to 0% (no tracer) and 100% (no inhibitor) control (STK17B; STK17B, inhibitor 250 nM, two replicates, listed as RN341, […]): 93.8885%; NanoBRET tracer signal (% of no-inhibitor control) at […] (STK17B; STK17B, inhibitor 250 nM, two replicates, read-out: nanoBRET response normalized to 0% (no tracer) and 100% (no inhibitor) control): 111%; nanoBRET response normalized to 0% (no tracer) and 100% (no inhibitor) control (STK17B; STK17B, inhibitor 500 nM, two replicates, listed as RN341, 0.5 µM): 103.232% and 77.6568%; NanoBRET tracer signal (% of no-inhibitor control) at […] (STK17B; STK17B, inhibitor 2500 nM, two replicates, read-out: nanoBRET response normalized to 0% (no tracer) and 100% (no inhibitor) control): 122% and 101%; nanoBRET response normalized to 0% (no tracer) and 100% (no inhibitor) control (STK17B; STK17B, inhibitor 5000 nM, two replicates, listed as RN341, 5 µM): 104.626% and 83.1368%; nanoBRET response normalized to 0% (no tracer) and 100% (no inhibitor) control (STK17B; STK17B, inhibitor 25000 nM, two replicates, listed as RN341, 25 µM): 75.7774%; NanoBRET tracer signal (% of no-inhibitor control) at 25 µM (STK17B; STK17B, inhibitor 25000 nM, two replicates, read-out: nanoBRET response normalized to 0% (no tracer) and 100% (no inhibitor) control): 80.3%; EC50 (CDKL1): 17 µM; remaining activity at 0.008 µM (CDKL1; CDKL1, inhibitor 8 nM, two replicates, read-out: nanoBRET response normalized to 0% (no tracer) and 100% (no inhibitor) control): 102% and 110%; nanoBRET response normalized to 0% (no tracer) and 100% (no inhibitor) control (CDKL1; CDKL1, inhibitor 16 nM, two replicates, listed as RN341, 0.016 µM): 102.251%; remaining activity at 0.016 µM (CDKL1; CDKL1, inhibitor 16 nM, two replicates, read-out: nanoBRET response normalized to 0% (no tracer) and 100% (no inhibitor) control): 96.8%; remaining activity at 0.05 µM (CDKL1; CDKL1, inhibitor 50 nM, two replicates, read-out: nanoBRET response normalized to 0% (no tracer) and 100% (no inhibitor) control): 106% and 102%; nanoBRET response normalized to 0% (no tracer) and 100% (no inhibitor) control (CDKL1; CDKL1, inhibitor 250 nM, two replicates, listed as RN341, […]): 106.285%; remaining activity at […] (CDKL1; CDKL1, inhibitor 250 nM, two replicates, read-out: nanoBRET response normalized to 0% (no tracer) and 100% (no inhibitor) control): 116%; nanoBRET response normalized to 0% (no tracer) and 100% (no inhibitor) control (CDKL1; CDKL1, inhibitor 500 nM, two replicates, listed as RN341, 0.5 µM): 96.8094%; remaining activity at 0.5 µM (CDKL1; CDKL1, inhibitor 500 nM, two replicates, read-out: nanoBRET response normalized to 0% (no tracer) and 100% (no inhibitor) control): 106%; nanoBRET response normalized to 0% (no tracer) and 100% (no inhibitor) control (CDKL1; CDKL1, inhibitor 2500 nM, two replicates, listed as RN341, […]): 88.1398%; remaining activity at […] (CDKL1; CDKL1, inhibitor 2500 nM, two replicates, read-out: nanoBRET response normalized to 0% (no tracer) and 100% (no inhibitor) control): 91%; nanoBRET response normalized to 0% (no tracer) and 100% (no inhibitor) control (CDKL1; CDKL1, inhibitor 5000 nM, two replicates, listed as RN341, 5 µM): 77.8643%; remaining activity at 5 µM (CDKL1; CDKL1, inhibitor 5000 nM, two replicates, read-out: nanoBRET response normalized to 0% (no tracer) and 100% (no inhibitor) control): 74.8%; nanoBRET response normalized to 0% (no tracer) and 100% (no inhibitor) control (CDKL1; CDKL1, inhibitor 25000 nM, two replicates, listed as RN341, 25 µM): 39.2489%; remaining activity at 25 µM (CDKL1; CDKL1, inhibitor 25000 nM, two replicates, read-out: nanoBRET response normalized to 0% (no tracer) and 100% (no inhibitor) control): 46.9%; nanoBRET response normalized to 0% (no tracer) and 100% (no inhibitor) control (MAPK14; MAPK14, inhibitor 8 nM, two replicates, listed as RN341, 0.008 µM): 98.3554%; remaining activity at 0.008 µM (MAPK14; MAPK14, inhibitor 8 nM, two replicates, read-out: nanoBRET response normalized to 0% (no tracer) and 100% (no inhibitor) control): 100%; nanoBRET response normalized to 0% (no tracer) and 100% (no inhibitor) control (MAPK14; MAPK14, inhibitor 16 nM, two replicates, listed as RN341, 0.016 µM): 103.532%; remaining activity at 0.016 µM (MAPK14; MAPK14, inhibitor 16 nM, two replicates, read-out: nanoBRET response normalized to 0% (no tracer) and 100% (no inhibitor) control): 96.2%; nanoBRET response normalized to 0% (no tracer) and 100% (no inhibitor) control (MAPK14; MAPK14, inhibitor 50 nM, two replicates, listed as RN341, 0.05 µM): 95.4254%; remaining activity at 0.05 µM (MAPK14; MAPK14, inhibitor 50 nM, two replicates, read-out: nanoBRET response normalized to 0% (no tracer) and 100% (no inhibitor) control): 90.1%; nanoBRET response normalized to 0% (no tracer) and 100% (no inhibitor) control (MAPK14; MAPK14, inhibitor 250 nM, two replicates, listed as RN341, […]): 83.4876%; remaining activity at […] (MAPK14; MAPK14, inhibitor 250 nM, two replicates, read-out: nanoBRET response normalized to 0% (no tracer) and 100% (no inhibitor) control): 73.2%; nanoBRET response normalized to 0% (no tracer) and 100% (no inhibitor) control (MAPK14; MAPK14, inhibitor 500 nM, two replicates, listed as RN341, 0.5 µM): 52.7705%; remaining activity at 0.5 µM (MAPK14; MAPK14, inhibitor 500 nM, two replicates, read-out: nanoBRET response normalized to 0% (no tracer) and 100% (no inhibitor) control): 57.4%; nanoBRET response normalized to 0% (no tracer) and 100% (no inhibitor) control (MAPK14; MAPK14, inhibitor 2500 nM, two replicates, listed as RN341, […]): 49.0355%; remaining activity at […] (MAPK14; MAPK14, inhibitor 2500 nM, two replicates, read-out: nanoBRET response normalized to 0% (no tracer) and 100% (no inhibitor) control): 48.5%; nanoBRET response normalized to 0% (no tracer) and 100% (no inhibitor) control (MAPK14; MAPK14, inhibitor 5000 nM, two replicates, listed as RN341, 5 µM): 40.5445%; remaining activity at 5 µM (MAPK14; MAPK14, inhibitor 5000 nM, two replicates, read-out: nanoBRET response normalized to 0% (no tracer) and 100% (no inhibitor) control): 48.2%; nanoBRET response normalized to 0% (no tracer) and 100% (no inhibitor) control (MAPK14; MAPK14, inhibitor 25000 nM, two replicates, listed as RN341, 25 µM): 17.1717%; remaining activity at 25 µM (MAPK14; MAPK14, inhibitor 25000 nM, two replicates, read-out: nanoBRET response normalized to 0% (no tracer) and 100% (no inhibitor) control): 25.4%; EC50 (MAPK14; in cellulo nanoBRET, 293T cells): < 5 µM and 1.7 µM
